From patent publication EP2123328A1 (priority 2008, dated 2009)
Like-named read-outs stand apart in the source and are kept apart here.

What was measured:
γ-secretase = molecular target: T1, γ-secretase (Homo sapiens, UniProt P49768); assay: Inhibitory effect on γ-secretase: ELISA of human β-amyloid in the cell medium of APP751-expressing HEK293 cells; assay type: cell-based; conditions: for γ-Secretase effect: concentration 2 µM, compared with DAPT; for γ-Secretase effect / quantity of amyloid β: figure 3; for concentrations at which the substances have γ-secretase activity / decrease of β-amyloid quantity in the cell medium: tested at 0,02, 0,2 and 2 µM, Figure 2; for quantity of amyloid β: concentration 0,02 µM
T1 construct: endogenous in cells; host or cells: HEK293 cells stably expressing APP751
Description: To a solution of norgalanthamine hydrochloride (0.42 g 1.3560 mmol) in DMF under cooling Et3N (0.19 ml 1.3520 mmol) and N-(3,4-dichlorophenyl)-alanyl-valine (0.50 g 1.5009 mmol) and N-cyclohexyl-N-[β-(N-methylformolino)-ethyl-] carbodiimide (0.64 g 1.5109 mmol) was added. The reaction mixture was stirred for 24 hours at room temperature and the end of reaction was monitored in a system of n-BuOH:AcOH:H2O= 3:1:1 To the reaction mixture 5 % NaHCO3 was add, followed by precipitate formation. The precipitate was washed by suspending in 5 % NaHCO3 and H2O. […] 137-141 °C, yield 37 %, chromatographically pure in a system of CHCl3:MeOH=9:1 and n-BuOH:AcOH:H2O= 3:1:1. IR [cm^-1]: 3384, 3062, 3028, 2930, 1640, 1599, 1280, 1240, 1059, 753, 701. HPLC: Rt= 2.58 and 2.76 min for S and R isomers. 1H NMR (CDCl3, ppm ) δ: 7.10-7.30 (2H, NH), 7.0-6.20 (10H, 5H Ph + H9', H10'+ 3H PhCl), 6.0 (m, 2H, H4', H5'), 4.7-4.4 (m, 4H, CH2NCH2), 4.5 (m, 1H, H1'), 4.14 (m, 1H, H3'), 3.85 (s, 3H, O-CH3), 3.90 (m, 1H, CHCH2Ph), 3.75 (q, 1H, CHCH3), 3.20 (m, 1H, CHCH2Ph), 2.70 (d, J=15.9 Hz, 1H, H2a'), 2.02 (d, J=15.9 Hz, 1H, H2b'), 1.90 (m, CH2), 1.30 (d, , 3H, CHCH3). Elemental analysis - nitrogen determination: C34H36N3Cl2O5, M.M= 636.54 theoretical 6.60 % N, calculated 6.62 % N. Mass spectrometry: C34H36N3Cl2O5, M.M= 636.20 found [M+H]^+=636.55. […] 133-138 °C, yield 35 %, chromatographically pure in a system of CHCl3:MeOH=9:1 and n-BuOH:AcOH:H2O= 3:1:1. IR [cm^-1]: 3338, 2963, 2931, 2874, 1656, 1630, 1599, 1382, 1373, 1279, 1214, 1059. HPLC: Rt= 2.35 and 2.53 min for S and R isomers. 1H NMR (CDCl3, ppm) δ: 7.10-7.30 (2H, NH), 7.0-6.20 (5H, H9', H10', 3H PhCl), 5.90 (m, 2H, H4', H5'), 4.7-4.4 (m, 4H, CH2NCH2), 4.5 (m, 1H, H1'), 4.15 (m, 1H, H3'), 3.86 (s, 3H, O-CH3), 3.85 (m, 1H, H2), 3.75 (q, 1H, CHCH3), 3.20 (m, 1H), 2.70 (d, J=15.9 Hz, 1H, H2a'), 2.40 (m, 1H, CH(CH3)2), 2.02 (d, J=15.9 Hz, 1H, H2b'), 1.90 (m, CH2), 1.30 (d, 3H, CHCH3), 0.80 (d, 6H, 2 x CH3). Elemental analysis - nitrogen determination: C29H33N3Cl2O5, M.M= 588.41 calculated 7.14 % N, found 6.98 % N. Mass spectrometry: C29H33N3Cl2O5, M.M= 587.20 found [M+H]^+=588.45. Example 14 The study of inhibitory effect on γ-secretase of the compounds under the inventions took place on expressing APP751 HEK293 cells using the following methods: (1) cell cultivation of expressing APP751 HEK293 cells, and (2) ELISA (solid-phase sandwich enzyme-linked immunosorbent assay) of human β-amyloid protein. HEK293 cells were cultivated in Dulbecco's modified Eaglr's medium (Applichem, Germany) with added 10% fetal calf serum (Biowhittaker, USA) and 200 U/ml Penicillin and […] Streptomycin (Applichem, Germany) at 37°C and 5% CO2. ELISA kits of human β-amyloid are intended for in vitro quantitative determination of a native or recombinant β-amyloid in serum, supernatant of cell cultures or other biological samples. In short, a monoclonal antibody specific for the amino end of β-amyloid was immobilized for a 96-pit plate. β-amyloid antigen from the standards or from the samples was connected with this first antibody. Then a second antibody was placed for detection of the specific β-amyloid 1 - 42. An anti-rabbit antibody IgG-HRP completed the sandwich. The reaction was visualized by means of 3,3",5,5"-tetramethylbenzidine (TMB) substrate, following by a stop solution. Yellow colour intensity was in direct proportion to the concentration of β-amyloid in the original sample. The sensitivity of these ELISA was < 10 pg/ml β-amyloid. ELISA method was used to study the inhibitory effect on γ-secretase of the compounds obtained according to the invention on expressing APP751 HEK293 cells. The following abbreviations were used: • 1. 6-O-N-[N- (3,4-dichlorophenyl)-D,L-alanyl]-glycil-galanthamine - AG-GAL • 2. […] 6-O-N-[N- (3,4-dichlorophenyl)-D,L-alanyl]-L-leucil-glycil-galanthamine - ALG-GAL • 4. 6-O-N-[N- (3,4-dichlorophenyl)-D,L-alanyl]-L-valyl-glycil-galanthamine - AVG-GAL • 5. N-(3,4-dichlorophenyl)-D,L-alanyl-L-phenylalanine - AF • 6. […]

acetylcholinesterase = molecular target: T2, acetylcholinesterase (Homo sapiens, UniProt P22303); assay: biochemical
T2 construct: purchased Sigma
T2 sequence (P22303 32-614, species assumed): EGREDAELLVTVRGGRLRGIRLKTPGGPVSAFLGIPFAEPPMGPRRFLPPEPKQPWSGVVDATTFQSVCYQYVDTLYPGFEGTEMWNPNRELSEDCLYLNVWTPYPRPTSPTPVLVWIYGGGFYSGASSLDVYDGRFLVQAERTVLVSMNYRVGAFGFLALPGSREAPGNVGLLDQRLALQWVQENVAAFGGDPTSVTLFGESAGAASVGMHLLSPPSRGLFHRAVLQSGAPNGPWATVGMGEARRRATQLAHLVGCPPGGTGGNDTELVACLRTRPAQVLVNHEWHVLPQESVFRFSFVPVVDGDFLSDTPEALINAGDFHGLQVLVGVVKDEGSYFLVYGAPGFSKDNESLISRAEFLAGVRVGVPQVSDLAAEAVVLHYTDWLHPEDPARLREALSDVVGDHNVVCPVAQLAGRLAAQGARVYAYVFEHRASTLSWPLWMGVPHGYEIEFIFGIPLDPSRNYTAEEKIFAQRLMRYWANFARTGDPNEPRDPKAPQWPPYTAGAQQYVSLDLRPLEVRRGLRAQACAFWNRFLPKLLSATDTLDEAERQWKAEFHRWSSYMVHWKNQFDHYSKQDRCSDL
Description: Acetylcholine iodide was used as substrate. Acetylcholinesterase is a commercial product (Sigma). […] After stirring, 1 EU acetylcholinesterase was added. […] Each test was repeated 3 times. The test substances was dissolved in 50% ethyl alcohol.

butyrylcholinesterase = molecular target: T3, butyrylcholinesterase (Homo sapiens, UniProt P06276); assay: biochemical
T3 construct: purchased Sigma
T3 sequence (P06276 29-602): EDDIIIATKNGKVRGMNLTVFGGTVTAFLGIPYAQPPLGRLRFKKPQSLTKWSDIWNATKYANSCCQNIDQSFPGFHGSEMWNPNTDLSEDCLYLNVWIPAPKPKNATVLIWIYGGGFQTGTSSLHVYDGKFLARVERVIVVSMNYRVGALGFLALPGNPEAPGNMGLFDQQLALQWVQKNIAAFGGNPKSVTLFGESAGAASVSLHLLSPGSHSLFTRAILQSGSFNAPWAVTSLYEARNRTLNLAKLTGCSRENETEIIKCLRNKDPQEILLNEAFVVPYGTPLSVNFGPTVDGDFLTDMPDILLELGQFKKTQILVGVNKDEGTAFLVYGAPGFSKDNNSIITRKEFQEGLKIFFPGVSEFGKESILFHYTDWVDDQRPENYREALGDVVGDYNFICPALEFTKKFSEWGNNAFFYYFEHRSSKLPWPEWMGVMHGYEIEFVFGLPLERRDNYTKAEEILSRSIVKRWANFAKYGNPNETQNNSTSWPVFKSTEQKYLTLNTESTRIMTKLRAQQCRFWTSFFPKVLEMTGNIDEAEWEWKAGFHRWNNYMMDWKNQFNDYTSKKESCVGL
Description: In studying the inhibitory effect of the compounds according to the invention, a modified Elman's method was used. Butyrylcholine iodide was used as substrate. Butyrylcholinesterase is a commercial product (Sigma). Enzyme activity determination was performed in 0,1 M sodium phosphate buffer pH 8,0 at 25 °C. To 1 ml of the buffer, 90 mcl (7,5 MM) butyrylcholine iodide and 45 mcl (10 MM) 5,5'-ditiobis-2-nitrobenzoic acid (DTNB) were added. After stirring, 1 EU butyrylcholinesterase was added. The enzyme reaction was monitored according to the change of absorption at 412 nm in a period of 2 to10 min. The speed of the enzyme reaction was calculated in M/l.sec, using an absorption coefficient of 14,15 .10^3 1/M.cm (Eyer). Each test was repeated 3 times. The substances under study were dissolved in 50% ethyl alcohol. To trace the inhibiting effect, the compounds under study were added in different concentrations to 1,5 ml of phosphate buffer and 1 EU enzyme. They were incubated for 30 min at 25 °C, then butyrylcholine iodide and DTNB were added and the course of the enzyme reaction was monitored according to the description above. […] After a preliminary screening, such concentrations of the test substances were selected that have an inhibiting effect between 20 and 80%. To determine the inhibition constant (Ki), minimum 3 different concentrations of the test compounds under study were used. The inhibition curves for each selected concentration of the inhibitor were made using the method of double reciprocal values (Lineweaver, Burk), substrate concentration being within 90 - 3300 .10^-6 M/l. IC50 values were determined using the log-probit method. The calculations were made using the matlab6 program. IC50 values were made on the basis of experimental data obtained for different concentrations of the compounds manifesting inhibitory activity.

[1] = 0,1 M sodium phosphate buffer pH 8,0, 25 °C, 30 min preincubation, acetylcholine iodide substrate, read-out: IC50
[2] = 0,1 M sodium phosphate buffer pH 8,0, 25 °C, 30 min preincubation, butyrylcholine iodide substrate, read-out: IC50

| SMILES | γ-Secretase effect (γ-secretase) | IC50 (acetylcholinesterase; [1]) [µM] | IC50 (butyrylcholinesterase; [2]) [µM] | also measured |
| --- | --- | --- | --- | --- |
| CC(Nc1ccc(Cl)c(Cl)c1)C(=O)N[C@@H](Cc1ccccc1)C(=O)O (mixture of isomers) [AF, N-(3,4-dichlorophenyl)-D,L-alanyl-L-phenylalanine] | comparable with the effect of DAPT | – | – | – |
| CC(C)C[C@H](NC(=O)C(C)Nc1ccc(Cl)c(Cl)c1)C(=O)O (mixture of isomers) [AL, N-(3,4-dichlorophenyl)-D,L-alanyl-L-leucine] | – | – | – | concentrations at which the substances have γ-secretase activity (γ-secretase; 6 hours incubation): higher than 0,02 µM; decrease of β-amyloid quantity in the cell medium (γ-secretase; 6 hours incubation): significant decrease |
| COc1ccc2c3c1O[C@H]1C[C@@H](OC(=O)CNC(=O)C(C)Nc4ccc(Cl)c(Cl)c4)C=C[C@@]31CCN(C)C2 (stereo partly drawn) [Compound 1, 6-O-N-[N-(3,4-dichlorophenyl)-D,L-alanyl]-glycil-galanthamine] | no inhibitory effect | – | – | IC50 (acetylcholinesterase): 3.98 µM; quantity of amyloid β (γ-secretase): decreased significantly; IC50 (butyrylcholinesterase): 23.7 µM |
| COc1ccc2c3c1OC1CC(OC(=O)CNC(=O)C(Cc4ccccc4)NC(=O)C(C)Nc4ccc(Cl)c(Cl)c4)C=CC31CCN(C)C2 [Compound 2, 6-O-N-[N-(3,4-dichlorophenyl)-D,L-alanyl]-L-phenylalanyl-glycil galanthamine] | – | 3.76 | 10 | – |
| COc1ccc2c3c1OC1CC(OC(=O)CNC(=O)C(CC(C)C)NC(=O)C(C)Nc4ccc(Cl)c(Cl)c4)C=CC31CCN(C)C2 [Compound 3, 6-O-N-[N-(3,4-dichlorophenyl)-D,L-alanyl]-L-leucil-glycil-galanthamine] | comparable with the effect of DAPT | 3.35 | 0.612 | quantity of amyloid β (γ-secretase): decreased significantly |
| COc1ccc2c3c1OC1CC(OC(=O)CNC(=O)C(NC(=O)C(C)Nc4ccc(Cl)c(Cl)c4)C(C)C)C=CC31CCN(C)C2 [Compound 4, 6-O-N-[N-(3,4-dichlorophenyl)-D,L-alanyl]-L-valyl-glycil-galanthamine] | – | 8.33 | 0.335 | concentrations at which the substances have γ-secretase activity (γ-secretase; 6 hours incubation): higher than 0,02 µM; decrease of β-amyloid quantity in the cell medium (γ-secretase; 6 hours incubation): significant decrease |
| COc1ccc2c3c1O[C@H]1C[C@@H](O)C=C[C@@]31CCN(C(=O)[C@H](Cc1ccccc1)NC(=O)C(C)Nc1ccc(Cl)c(Cl)c1)C2 (stereo partly drawn) [Compound 5, 11-N-demethyl-11-N-N-[N-(3,4-dichlorophenyl)-D,L-alanyl]-L-phenylalanyl-galanthamine] | – | – | – | IC50 (acetylcholinesterase): 12.5 µM; IC50 (butyrylcholinesterase): 0.447 µM |
| COc1ccc2c3c1OC1CC(O)C=CC31CCN(C(=O)C(NC(=O)C(C)Nc1ccc(Cl)c(Cl)c1)C(C)C)C2 [Compound 6, 11-N-demethyl-11-N-N-[N-(3,4-dichlorophenyl)-D,L-alanyl]-L-valyl-galanthamine] | – | 31.2 | 0.603 | – |
| C[C@H](NC(=O)Cc1cc(F)cc(F)c1)C(=O)N[C@H](C(=O)OC(C)(C)C)c1ccccc1 [DAPT, N-[N-(3,5-difluorophenylacetyl)-L-alanyl]-S-phenylglycin tertiary butyl ester, reference compound] | – | – | – | concentrations at which the quantity of β amyloid is decreased by inhibiting γ-secretase activity (γ-secretase; 6 hours incubation, serum-free medium, figure 1): higher than 160 nM |
